Data set [1] deals with fresh rat hepatocytes. In words: Metabolism in fresh rat hepatocytes. Particulars: for % of compound metabolized after 60 minutes: fresh rat hepatocytes, test item nominal concentration 45 μM.
Data set [2] has as its target Na+, K+-ATPase (Canis lupus familiaris, UniProt P50997). In words: biochemical. Also on record: species or system dog.
For data set [3], the system named is anesthetized guinea-pig. In words: Inotropic effect and lethal dose, slow intravenous infusion (over 90 minutes) in anesthetized guinea-pig. Particulars: for % decrease from Emax after 20 min from the end of the infusion: duration of the inotropic effect; for Maximum dose infused: maximum dose infused in the survived animals; for Emax % increase in +dP/dTmax: maximum increase in contractile force; for Emax % increase in +dP/dTmax / Dead/treated / ED80 (inotropic potency, dose increasing +dP/dTmax by 80%) / EDmax (dose inducing maximum positive inotropic effect): slow i.v. infusion over 90 minutes; for ED80 / ED (max) / Emax: Cavia porcellus, iv, 1.5 h; for ED80: read-out: ED80 (inotropic potency, dose increasing +dP/dTmax by 80%); for ED (max): read-out: EDmax (dose inducing maximum positive inotropic effect); for Emax: read-out: Emax % increase in +dP/dTmax; for Lethal dose/ED80 (safety ratio): calculated in the died animals.

[4] abbreviates: read-out: Na+, K+-ATPase Inhibition IC50.
The mark [5] stands for this setting: dog kidney enzyme, read-out: Na+, K+-ATPase Inhibition IC50.

Counter-ions that a name gives are not always drawn. Like-named read-outs stand apart in the source and are kept apart here.

The term IC50 denotes the point on the concentration scale where inhibition reaches its midpoint.

Regarding `CNCCCON=C1CC[C@@]2(C)C(C1)C(=NOC)C[C@@H]1[C@@H]2CC[C@]2(C)C(=O)CC[C@@H]12.Cl` (stereo partly shown) [I-ci, (E,Z) 3-(3-N-Methylaminopropoxyimino)-6-(E)-methoxyiminoandrostan-17-one hydrochloride], the “% of compound metabolized after 60 minutes” value (“% of compound metabolized” for short) in data set [1] came to 41%. For the same compound, in data set [2] (setting [4]), the half-inhibitory concentration (IC50) was 330 nM.
As to `C[C@]12CC[C@@H](/C=C\CCCN)CC1/C(=N/O)C[C@@H]1[C@@H]2CC[C@]2(C)C(=O)CC[C@@H]12.O=C(O)/C=C/C(=O)O` (stereo partly drawn) [I-dg, 3α-(5-Aminopent-1-(Z)-enyl)-6-(E)-hydroxyiminoandrostan-17-one fumarate], in data set [3], the “% decrease from Emax after 20 min from the end of the infusion” value (from here on “% decrease from Emax after 20 min”) is given as 29%, the Maximum dose infused was found to be 12.9 µmol/kg, the “Emax % increase in +dP/dTmax” value came to 105% and the Dead/treated is recorded as 0/3. For the same compound, in data set [3], the “ED80 (inotropic potency, dose increasing +dP/dTmax by 80%)” value worked out at 8.62 µmol/kg and the “EDmax (dose inducing maximum positive inotropic effect)” value came to 11.4 µmol/kg. Besides, the IC50 in data set [2] (setting [4]) turned out to be 390 nM.
Take `C=C1C[C@H]2[C@@H]3CCC(=O)[C@@]3(C)CC[C@@H]2[C@@]2(C)CCC(=NOCCN)C[C@]12O` (mixture of isomers) [I-bq, (E,Z) 3-(2-Aminoethoxyimino)-5α-hydroxy-6-methylenandrostane-17-one hydrochloride]: in data set [3], the ED80 worked out at 5.87 µmol/kg, the ED (max) is 15.7 µmol/kg, the Emax turned out to be 173% and the “% decrease from Emax after 20 min” value is 10%. Also, in data set [3], the Maximum dose infused worked out at 25.3 µmol/kg and the Dead/treated was 0/3. The compound further returned an IC50 in data set [2] (Na+, K+-ATPase Inhibition IC50) of 99 nM.
With `C[C@]12CC[C@H]3[C@@H](CC[C@@]4(O)CC(=NOCCN)CC[C@]34C)[C@@H]1CCC2=O` (mixture of isomers) [I-ad, (E,Z) 3-(2-Aminoethoxyimino)-5α-hydroxyandrostan-17-one fumarate], in data set [3], the ED80 stood at 5.14 µmol/kg, the ED (max) is 22.5 µmol/kg, the Emax worked out at 202% and the “% decrease from Emax after 20 min” value worked out at 100%. In data set [3], the Maximum dose infused turned out to be 50.1 µmol/kg and the Dead/treated was 0/3. Further, half-maximal inhibition in data set [2] (Na+, K+-ATPase Inhibition IC50) (IC50) required 540 nM.
Consider `CO/N=C1\C[C@H]2[C@@H]3CCC(=O)[C@@]3(C)CC[C@@H]2[C@@]2(C)CCC(=NOCCN)C[C@]12O` (mixture of isomers) [I-bp, (E,Z)-3-(2-Aminoethoxyimino)-5α-hydroxy-6-(E)-methoxyiminoandrostane-17-one fumarate], for which the “% of compound metabolized” value in data set [1] stood at 32%. This compound showed an IC50 in data set [2] (Na+, K+-ATPase Inhibition IC50) of 40 nM.
Regarding `C[C@]12CCC(=NOCCN)CC1C(=O)C[C@@H]1[C@@H]2CC[C@]2(C)C(=O)CC[C@@H]12.Cl` (mixture of isomers) [compd 22b, (EZ) 3-(2-aminoethoxyimino)androstane-6,17-dione hydrochloride, reference compound], in data set [3], the ED80 stood at 1.82 µmol/kg, the ED (max) stood at 5.74 µmol/kg, the Emax stood at 182% and the “Lethal dose/ED80 (safety ratio)” value is 22.6. Also, in data set [3], the “% decrease from Emax after 20 min” value was 100%, the Maximum dose infused was determined as 32.1 µmol/kg and the Dead/treated is on record as 7/8. The “% of compound metabolized” value in data set [1] was 95%. Besides, in data set [1] (within 60 minutes), the “metabolism in fresh rat hepatocytes (in words)” value is “almost completely metabolized”.
As for `CC12CCC3C(C(=O)CC4CC(=NOCCN)CCC43C)C1CCC2=O` (mixture of isomers) [I-br, (E,Z) 3-(2-Aminoethoxyimino)androstane-7,17-dione fumarate], in data set [3], the ED80 amounted to 1.62 µmol/kg, the ED (max) was determined as 13.5 µmol/kg, the Emax was 264% and the “Lethal dose/ED80 (safety ratio)” value is 32.4. In data set [3], the “% decrease from Emax after 20 min” value amounted to 100%, the Maximum dose infused was 50.4 µmol/kg and the Dead/treated is 2/5. Besides, the IC50 in data set [2] (Na+, K+-ATPase Inhibition IC50) turned out to be 210 nM.
Turning to `CC1CC2C3CCC(=O)C3(C)CCC2C2(C)CCC(=NOCCN)CC12` (single isomer, unassigned) [I-ba, (E,Z) 3-(2-Aminoethoxyimino)-6α-methylandrostan-17-one hydrochloride], in data set [3], the ED80 was determined as 3.09 µmol/kg, the ED (max) came out at 5.78 µmol/kg, the Emax was 203% and the “% decrease from Emax after 20 min” value is given as 100%. Moreover, in data set [3], the Maximum dose infused came out at 6.3 µmol/kg and the Dead/treated is 0/3. For the same compound, half-maximal inhibition in data set [2] (Na+, K+-ATPase Inhibition IC50) (IC50) was put at 300 nM.
With `CC12CCC3C(C(=NO)CC4CC(=NOCCN)CCC43C)C1CCC2=O` (mixture of isomers) [I-bs, (E,Z)-3-(2-Aminoethoxyimino)-7-(E)-hydroxyiminoandrostane-17-one fumarate], the “% of compound metabolized” value in data set [1] was 15%.
With `CON=C1CC2C3CCC(=O)C3(C)CCC2C2(C)CCC(=NOCCN)CC12` (mixture of isomers) [I-aw, (E,Z)-3-(2-Aminoethoxyimino)-6-(E)-methoxyiminoandrostan-17-one hydrochloride], in data set [3], the ED80 is 2.35 µmol/kg, the ED (max) is 5.77 µmol/kg, the Emax came out at 183% and the “% decrease from Emax after 20 min” value was 100%. For the same compound, in data set [3], the Maximum dose infused turned out to be 12.7 µmol/kg and the Dead/treated was 0/5. In addition, the half-maximal inhibitory concentration (IC50) in data set [2] (setting [5]) was determined as 17 nM.
With `C#C[C@H]1C[C@@H]2[C@H](CC[C@]3(C)C(=O)CC[C@@H]23)[C@@]2(C)CCC(=NOCCN)C[C@H]12` (mixture of isomers) [I-bd, (E,Z) 3-(2-Aminoethoxyimino)-6α-ethynylandrostan-17-one hydrochloride], in data set [3], the ED80 was found to be 4.59 µmol/kg, the ED (max) amounted to 9.89 µmol/kg, the Emax turned out to be 163% and the “% decrease from Emax after 20 min” value is 16%. In data set [3], the Maximum dose infused turned out to be 12.8 µmol/kg and the Dead/treated is on record as 0/3. The compound also showed a half-inhibitory concentration (IC50) in data set [2] (Na+, K+-ATPase Inhibition IC50) of 200 nM.
Turning to `CC12CCC3C(CC(CCO)C4CC(=NOCCN)CCC43C)C1CCC2=O` (mixture of isomers) [I-am, (E,Z) 3-(2-Aminoethoxyimino)-6α-(2-hydroxyethyl)androstan-17-one hydrochloride], in data set [3], the ED80 turned out to be 2.5 µmol/kg, the ED (max) stood at 17.2 µmol/kg, the Emax turned out to be 238% and the “Lethal dose/ED80 (safety ratio)” value is reported as 22.7. In data set [3], the “% decrease from Emax after 20 min” value was 17%, the Maximum dose infused is 50.5 µmol/kg and the Dead/treated was 2/3. Also, the IC50 in data set [2] (setting [5]) turned out to be 320 nM.
As for `C[C@]12CC[C@H](OC(=O)CCN)CC1/C(=N/O)C[C@@H]1[C@@H]2CC[C@]2(C)C(=O)CC[C@@H]12.Cl` (stereo partly drawn) [I-dm, 3β-(3-Aminopropionyloxy)-6-(E)-hydroxyiminoandrostan-17-one hydrochloride], the “% of compound metabolized” value in data set [1] amounted to 71%.
Consider `C[C@]12CC[C@H]3[C@@H](C/C(=N\O)[C@@]4(O)CC(=NOCCN)CC[C@]34C)[C@@H]1CCC2=O.O=C(O)/C=C/C(=O)O` [I-bo, (E,Z)-3-(2-Aminoethoxyimino)-5α-hydroxy-6-(E)-hydroxyiminoandrostane-17-one fumarate], for which, in data set [3], the “% decrease from Emax after 20 min” value was 82%, the Maximum dose infused turned out to be 12.5 µmol/kg, the “Emax % increase in +dP/dTmax” value is given as 214% and the Dead/treated is on record as 0/3. Moreover, in data set [3], the “ED80 (inotropic potency, dose increasing +dP/dTmax by 80%)” value was found to be 1.30 µmol/kg and the “EDmax (dose inducing maximum positive inotropic effect)” value turned out to be 4.86 µmol/kg. Also, the half-inhibitory concentration (IC50) in data set [2] (setting [4]) is 79 nM.
Take `CNCCCON=C1CC[C@@]2(C)[C@H](C1)[C@@H](CO)C[C@@H]1[C@@H]2CC[C@]2(C)C(=O)CC[C@@H]12` (mixture of isomers) [I-cl, (E,Z) 3-(3-N-Methylaminopropoxyimino)-6α-hydroxymethylandrostan-17-one hydrochloride]: in data set [3], the ED80 amounted to 1.54 µmol/kg, the ED (max) stood at 8.95 µmol/kg, the Emax amounted to 263% and the “Lethal dose/ED80 (safety ratio)” value is given as 27.6. Also, in data set [3], the Maximum dose infused was 42.5 µmol/kg and the Dead/treated was 2/2. Moreover, in data set [2] (setting [5]), the 50% inhibitory concentration (IC50) was determined as 690 nM.
As to `CNCCCON=C1CCC2(C)C(C1)C(NC=O)CC1C3CCC(=O)C3(C)CCC12` (mixture of isomers) [I-co, (E,Z) 3-(3-N-Methylaminopropoxyimino)-6α-formamidoandrostan-17-one hydrochloride], in data set [3], the ED80 came to 0.93 µmol/kg, the ED (max) turned out to be 2.79 µmol/kg, the Emax turned out to be 177% and the “Lethal dose/ED80 (safety ratio)” value is listed as 47.4. In data set [3], the Maximum dose infused is 44.1 µmol/kg and the Dead/treated is on record as 2/2. In data set [2] (setting [5]), the IC50 is 1100 nM.
Take `C[C@]12CC[C@H]3[C@@H](CC[C@@]4(O)C[C@H](/C=C\CCCN)CC[C@]34C)[C@@H]1CCC2=O` [I-dk, 3α-(5-Aminopent-1-(Z)-enyl)-5α-hydroxyandrostane-17-one fumarate]: the “% of compound metabolized” value in data set [1] was 12%. Further, the IC50 in data set [2] (setting [5]) amounted to 690 nM.
In the case of `CC12CCC3C(CC(CO)C4CC(=NOCCN)CCC43C)C1CCC2=O` (single isomer, unassigned) [I-ao, (E,Z) 3-(2-Aminoethoxyimino)-6α-hydroxymethylandrostan-17-one hydrochloride], in data set [3], the ED80 is 1.8 µmol/kg, the ED (max) was determined as 7.37 µmol/kg, the Emax was determined as 166% and the “% decrease from Emax after 20 min” value is listed as 100%. For the same compound, in data set [3], the Maximum dose infused was found to be 12.6 µmol/kg and the Dead/treated is 0/3. In data set [2] (setting [5]), the IC50 was 180 nM.

The values are drawn from patent US8609644B2, “Amino derivatives of androstanes and androstenes as medicaments for cardiovascular disorders” (priority 2006, dated 2013).
